How the values were obtained:
C57B1/6J mice = assay: Running performance, body composition and muscle weight of high-fat-diet mice supplemented for 9 weeks; format: in vivo, mouse
Procedure: 20 male C57B1/6J mice were obtained from Jackson Laboratory (Bar Harbor, Me., USA) at the age of 5 weeks. All mice were administered a high-fat diet (Kliba#2154, Provimi Kliba AG, Kaiseraugst, Switzerland) for 8 weeks to induce obesity. Thereafter, the mice were randomly assigned into two groups:
The duration of the supplementation was 9 weeks. During this period all mice received food and water ad libitum. At the end of the supplementation period, maximal running performance on a rodent treadmill (Technical & Scientific Equipment GmbH, Bad Homburg, Germany) was determined. Body composition was measured by quantitative magnetic resonance (Minispec MQ10, Bruker Optics GmbH, Faellanden, Switzerland) in conscious animals. At the end of the study, the animals were killed, blood was taken and the gastrocnemius-plantaris-soleus muscle group was excised and weighted.

mCD36 = assay: Gene expression in C2C12 muscle cells (TaqMan RT-PCR): mCD36; format: cell-based, mouse; settings: for mCD36 fold of induction compared to DMSO control: C2C12 cells, 24 h incubation, mRNA; for Effect on CD36 expression (in words): muscle cells
Procedure: (§1) C2C12 subclone cells were obtained from Dr. Grimaldi, University of Nice, France. C2C12PPd cells were seeded in 24-well-plates with 0.1×106 to 0.15×106 and kept at 37° C. in maintenance medium (DMEM #41965 adjusted to 10% FBS, 2 mM L-Glutamine, 1 mM sodium pyruvate, 100 IU/ml penicillin and 100 μg/ml streptomycin). At 90-95% confluency, cells were washed with 1×PBS and changed to differentiation medium (DMEM #41965 adjusted to 3% FBS, 2 mM Glutamine and 1 mM sodium pyruvate). After 4 days of differentiation, cells were washed with 1×PBS and treated in treatment medium (DMEM #41965 adjusted to 2% BSA, 2 mM Glutamine and 100 IU/ml penicillin and 100 μg/ml streptomycin) with the test compounds. DMSO contents were adjusted to 0.5% final concentration.
(§2) After 24 h incubation with tested compounds, cells were washed with 1×PBS, harvested with 300 μl RLT buffer (Qiagen RNeasy Mini Kit #74106) in QIAshredder (Qiagen 79656) and stored at −20° C.
(§3) Total RNA was extracted using the Qiagen RNeasy Mini Kit, including an in column DNase step (Qiagen #79254) according to the manufacture's protocol. RNA concentration was determined using RiboGreen® RNA quantification assay (Molecular Probes #R11490, Eugene, USA) according to the manufacturer's protocol. 200 ng of the total RNA were subject to first strand cDNA synthesis by reverse transcription using the Omniscript™ RT-kit (Qiagen #205113, Basel, CH) with 10 μM Random Primers (Promega #C1181) according to the manufacturer's instructions. The final volume was adjusted to 400 μl with DEPC-treated water (Ambion, Austin, Tex., USA) and stored at −20° C.
(§4) Quantitative real-time TaqMan RT-PCR, based on the multiplex method, was used to quantify the expression levels of selected genes. In the quantitative TaqMan RT-PCR, 5 μl of the diluted cDNA was added to 20 μl of the reaction mixture, consisting of 12.5 μl TaqMan 2× Master Mix (PE biosystems, Rotkreuz, CH), 300 nM PCR primers (forward and reverse), and 100 nM TaqMan probe for the gene of interest. The reference gene used was 18S rRNA, with primers and probes at 50 nM and 100 nM, respectively. Probes for the gene of interest were labeled with FAM on the 5′ end and with Tamra on the 3′ end. The 18S rRNA probe was labeled with VIC on the 5′ end and with Tamra on the 3′ end. Amplification was performed using an Abi-Prism 7700 Sequence Detector (PE Biosystems, Foster City, Calif., USA) in MicroAmp Optical 96-well reaction plates (PE Biosystems, Foster City, Calif., USA). The PCR amplification program consisted of 2 min at 50° C., 10 min at 95° C., and 40 cycles of 15 sec at 95° C. and 60 sec at 60° C. Threshold CT values were set at 0.05. The baseline start and stop values for the gene of interest were set at 3 and 15, respectively, and for the reference gene (18S rRNA) at 3 and 7, respectively. mRNA abundance was determined using the ΔCT method according to the manufacturer's protocol. Briefly, the ΔCT for the gene of interest was determined as the difference between the CT values for the reference gene and the gene of interest. Then, ΔΔCT was determined as the difference in dCT between the untreated control group and each of the treated groups. The fold induction for the gene of interest (i.e. the amount of mRNA for the gene of interest, normalized to an endogenous reference and relative to a calibrator) was determined as 2-ΔΔCT In graphs data is presented as a percentage.
(§5) Genes in involved in fatty acid β-oxidation and lipid metabolism were checked using real-time RT-PCR.

mUCP2 = assay: Gene expression in C2C12 muscle cells (TaqMan RT-PCR): mUCP2; format: cell-based, mouse; settings: 24 h incubation, mRNA
Procedure: as §1, §2, §3, §4, §5

mCPT1b = assay: Gene expression in C2C12 muscle cells (TaqMan RT-PCR): mCPT1b; format: cell-based, mouse; settings: for mCPT1b fold of induction compared to DMSO control: C2C12 cells, 24 h incubation, mRNA; for Effect on CPT1b expression (in words): muscle cells
Procedure: as §1, §2, §3, §4, §5

mACO1 = assay: Gene expression in C2C12 muscle cells (TaqMan RT-PCR): mACO1; format: cell-based, mouse; settings: 24 h incubation, mRNA
Procedure: as §1, §2, §3, §4, §5

mLPL = assay: Gene expression in C2C12 muscle cells (TaqMan RT-PCR): mLPL; format: cell-based, mouse; settings: for mLPL fold of induction compared to DMSO control: C2C12 cells, 24 h incubation, mRNA; for Effect on LPL expression (in words): muscle cells
Procedure: as §1, §2, §3, §4, §5

mFABP3 = assay: Gene expression in C2C12 muscle cells (TaqMan RT-PCR): mFABP3; format: cell-based, mouse; settings: for mFABP3 fold of induction compared to DMSO control: C2C12 cells, 24 h incubation, mRNA; for Effect on FABP3 expression (in words): muscle cells
Procedure: as §1, §2, §3, §4, §5

mUCP3 = assay: Gene expression in C2C12 muscle cells (TaqMan RT-PCR): mUCP3; format: cell-based, mouse; settings: for mUCP3 fold of induction compared to DMSO control: C2C12 cells, 24 h incubation, mRNA; for Effect on UCP3 expression (in words): muscle cells
Procedure: as §1, §2, §3, §4, §5

[1] = compared to mice in the control group
[2] = mice, high-fat diet supplemented with 0.03% w/w, 9 weeks
[3] = mice, high-fat diet supplemented with 0.03% w/w, 9 weeks, quantitative magnetic resonance

Row | Compound | mCD36 fold of induction compared to DMSO control (mCD36) | mUCP2 fold of induction compared to DMSO control (mUCP2) | mCPT1b fold of induction compared to DMSO control (mCPT1b) | mACO1 fold of induction compared to DMSO control (mACO1) | mLPL fold of induction compared to DMSO control (mLPL) | mFABP3 fold of induction compared to DMSO control (mFABP3) | Effect on CD36 expression (in words) (mCD36) | Effect on CPT1b expression (in words) (mCPT1b) | mUCP3 fold of induction compared to DMSO control (mUCP3) | Effect on UCP3 expression (in words) (mUCP3) | Effect on LPL expression (in words) (mLPL) | Effect on FABP3 expression (in words) (mFABP3) | other results
1 | COc1ccc(-c2coc3cc(OC)ccc3c2=O)cc1 [4′,7-Dimethoxyisoflavone, 4′,7-dimethoxyisoflavone] |  |  |  |  |  |  |  |  |  |  |  |  | Increase of maximal running distance (C57B1/6J mice; compared to control group, treadmill): 6%; Effect on body weight (in words) (C57B1/6J mice; [1]): decreased; Effect on gastrocnemius-plantaris-soleus weight relative to body weight (in words) (C57B1/6J mice; [1]): increased; Effect on percentage of body fat mass (in words) (C57B1/6J mice; [1]): decreased; Effect on percentage of lean body mass (in words) (C57B1/6J mice; [1]): increased; Body weight (C57B1/6J mice; [2]): 30.5 g; Gastrocnemius-plantaris-soleus weight (C57B1/6J mice; [2]): 6.74 mg/g body weight; Body fat mass (C57B1/6J mice; [3]): 15.6 % of body weight; Lean body mass (C57B1/6J mice; [3]): 75.0 % of body weight; Maximal running distance (C57B1/6J mice; mice, high-fat diet supplemented with 0.03% w/w, 9 weeks, rodent treadmill): 2201 m
2 | O=C(C=Cc1ccc(O)c(O)c1)NC(=O)c1ccccc1O [Compound 1, N-[3-(3,4-dihydroxyphenyl)-1-oxo-2-propenyl]-2-hydroxybenzamide] | 2.93 fold | 2.46 fold | 1.33 fold | 1.98 fold | 1.11 fold | 1.35 fold |  |  |  |  |  |  | 
3 | COc1cc(C=CC(=O)NC(=O)c2ccccc2O)cc(OC)c1OC [Compound 2] | 3.2 fold | 3.27 fold | 1.05 fold | 1.81 fold | 1.91 fold | 1.63 fold |  |  |  |  |  |  | 
4 | COc1ccc(C=CC(=O)c2cc(OC)ccc2OC)c(OC)c1 [Compound 3, 3-(2,4-dimethoxyphenyl)-1-(2,5-dimethoxyphenyl)-2-propen-1-one] | 10.16 fold | 4.25 fold | 3.64 fold | 1.54 fold | 3.5 fold | 4.76 fold | most remarkable effect | induced | 4.73 fold | increased UCP3 expression | increased moderately | most remarkable effect | 
5 | COc1ccc(C(=O)/C=C/c2c(CCN(C)C(C)=O)cc3c(c2OC)OCO3)cc1 [Compound 4] | 15.56 fold | 7.55 fold | 5.08 fold | 1.74 fold | 3.31 fold | 6.29 fold | most remarkable effect | induced | 5.95 fold | increased UCP3 expression | increased moderately | most remarkable effect | 
6 | COc1ccc(C(=O)C=Cc2cccc(OC(=O)C=Cc3ccccc3)c2)cc1 [Compound 5, 3-phenyl-2-propenoic acid 3-[3-(4-methoxyphenyl)-3-oxo-1-propenyl]phenyl ester] | 1.91 fold | 2.33 fold | 4.19 fold | 1.03 fold | 1.84 fold | 1.88 fold |  | induced |  |  |  |  | 
7 | COc1ccc(C(=O)C=Cc2ccc(OC)c(OC)c2)cc1 [Compound 6, 3-(3,4-dimethoxyphenyl)-1-(4-methoxyphenyl)-2-propen-1-one] | 22.66 fold | 6.1 fold | 1.62 fold | 1.09 fold | 2.44 fold | 5.02 fold | most remarkable effect |  | 1.92 fold | increased UCP3 expression | increased moderately | most remarkable effect | 
8 | COc1ccc(C=C2Oc3cc(O)ccc3C2=O)cc1 [Compound 7] | 2.95 fold | 2.33 fold | 1.12 fold | 1.03 fold | 1.06 fold | 2.16 fold |  |  |  |  |  |  | 
9 | COc1ccc(C(=O)C=Cc2ccc(OC)cc2OC)cc1 [Compound 8, 3-(2,4-dimethoxyphenyl)-1-(4-methoxyphenyl)-2-propen-1-one] | 9.49 fold | 4.68 fold | 1.29 fold | 1.15 fold | 1.88 fold | 3.36 fold |  |  |  |  |  |  | 
